Measured values: patent US8273775B2, “Non-steroidal brassinosteroid mimetic” (priority 2006, dated 2012)

Tested on: gene expression in Col-0 seedling shoots
Experiment: Microarray analysis (ATH1 Affymetrix) after BL or abrasin treatment
Format: in vivo, Arabidopsis
Description: FIG. 14: Clustering of gene expression profiles by QT-clust analysis. Clusters illustrating the major patterns of the data sets. Points: BIK-30: 30 μM abrasin 30 min; BL-30: 1 μM brassinolide 30 min; DMSO-30: control DMSO 30 min; BIK-120: 30 μM abrasin 120 min; BL-120: 1 μM brassinolide 120 min; DMSO-120: control DMSO 120 min.
Col-0 seeds were germinated vertically on ½ MS medium for 7 days under 16 h light/8 h dark cycles. The seedlings were overlaid with liquid ½ MS medium containing 1 μM brassinolide (BL, Fuji Chemical Industries, Ltd., Toyama, Japan), 30 μM abrasin (BIK, ChemBridge Corporation) and DMSO and treated for 30 and 120 min. The shoot parts were collected for RNA isolation. All sampling points were performed in three independent experiments. RNA was extracted using RNeasy kit (Qiagene). […] total RNA per array was used to hybridise the ATH1 Affymetrix Arabidopsis arrays according to standard procedure. The overrepresentation analyses were performed using BiNGO software (Maere et al., 2005).
We performed a microarray analysis using the Arabidopsis whole genome chip (Affymetix) to determine whether abrasin activated the expression of BR-inducible genes at transcriptional level. Wild-type Col-0 seedlings were exposed to 1 μM BL, 30 μM ABRASIN and DMSO (mock-treatment) for two time points (30 min and 120 min) and the shoot parts were collected for RNA isolation. The analysis of the variance of the normalized gene expression data took in account the variability parameters affecting the expression level: type of hormone treatment, duration of treatment and the interaction between these two.

O=C(O)CCC(=O)Nc1ccc(Br)cn1 [abrasin, 4-[(5-bromo-2-pyridinyl)amino]-4-oxobutanoic acid]
expression of BR biosynthesis genes (CPD, DWF4, BR6OX2), Cluster 1 (1 μM BL, 30 μM ABRASIN): down-regulated | expression of WRKY transcription factors, DOF-type proteins, lectin receptor-like kinases, U-box proteins, HAESA (1 μM BL, 30 μM ABRASIN): induces the expression | expression of genes involved in the auxin pathway (IAA29, IAA2) (1 μM BL, 30 μM ABRASIN): significantly down-regulated | induction of early auxin-inducible SAUR family genes, Cluster 3 (1 μM BL, 30 μM ABRASIN, 30 and 120 min): had an effect only after 2 hours | Fold-change AT1G04330 expressed protein (30 min): 1.17 | Fold-change AT1G05470 endonuclease/exonuclease/phosphatase family protein (30 min): 1.42 | Fold-change AT1G06520 Encodes a membrane associated mitochondrial localized protein (30 min): 1.26 | Fold-change AT1G06570 4-hydroxyphenylpyruvate dioxygenase (HPD) (30 min): 0.91 | Fold-change AT1G10550 xyloglucan:xyloglucosyl transferase (30 min): 1.26 | Fold-change AT1G12710 F-box family protein (30 min): 0.88 | Fold-change AT1G12750 rhomboid family protein (30 min): 1.46 | Fold-change AT1G14130 2-oxoglutarate-dependent dioxygenase (30 min): 1.10 | Fold-change AT1G14700 purple acid phosphatase (30 min): 0.53 | Fold-change AT1G16640 transcriptional factor B3 family protein (30 min): 1.14 | Fold-change AT1G17230 leucine-rich repeat family protein (30 min): 1.09 | Fold-change AT1G18020; AT1G17990 [AT1G18020, 12-oxophytodienoate reductase, (30 min): 1.31 | Fold-change AT1G19320 pathogenesis-related thaumatin family protein (30 min): 0.52 | Fold-change AT1G20350 mitochondrial import inner membrane translocase subunit (30 min): 1.00 | Fold-change AT1G21050 expressed protein (30 min): 0.32 | Fold-change AT1G21760 F-box family protein (30 min): 0.76 | Fold-change AT1G22360 UDP-glucoronosyl/UDP-glucosyl transferase family protein (30 min): 0.82 | Fold-change AT1G23080 auxin efflux carrier protein (PIN7) (30 min): 0.81 | Fold-change AT1G26800 zinc finger (C3HC4-type RING finger) family protein, (30 min): 1.07 | Fold-change AT1G27730 zinc finger (C2H2 type) family protein (30 min): 0.56 | Fold-change AT1G28130 encodes an IAA-amido synthase (30 min): 0.64 | Fold-change AT1G28190 expressed protein (30 min): 2.79 | Fold-change AT1G28480 glutaredoxin family protein (30 min): 1.02 | Fold-change AT1G31040 zinc-binding protein-related (30 min): 1.35 | Fold-change AT1G31310 hydroxyproline-rich glycoprotein family protein (30 min): 1.17 | Fold-change AT1G31770 ABC transporter family protein (30 min): 0.91 | Fold-change AT1G32190 expressed protein (30 min): 0.73 | Fold-change AT1G32690 expressed protein (30 min): 0.38 | Fold-change AT1G36940 expressed protein (30 min): 0.45 | Fold-change AT1G49780 U-box domain-containing protein (30 min): 0.71 | Fold-change AT1G53870; AT1G53890 [AT1G53870, expressed protein (30 min): 0.43 | Fold-change AT1G54050 17.4 kDa class III heat shock protein (HSP17.4-CIII) (30 min): 1.16 | Fold-change AT1G54200 expressed protein (30 min): 1.26 | Fold-change AT1G55920 serine O-acetyltransferase (30 min): 2.19 | Fold-change AT1G57560 myb family transcription factor (MYB50) (30 min): 1.19 | Fold-change AT1G59590 expressed protein (30 min): 1.99 | Fold-change AT1G59660 nucleoporin family proteinmily (30 min): 1.45 | Fold-change AT1G62300 WRKY family transcription factor (30 min): 1.58 | Fold-change AT1G63050 membrane bound O-acyl transferase (MBOAT) family protein (30 min): 0.75 | Fold-change AT1G66160 U-box domain-containing protein, (30 min): 2.03 | Fold-change AT1G66890 expressed protein (30 min): 0.65 | Fold-change AT1G68330 expressed protein (30 min): 1.76 | Fold-change AT1G68810 basic helix-loop-helix (bHLH) family protein (30 min): 0.80 | Fold-change AT1G69160 expressed protein (30 min): 0.67 | Fold-change AT1G70990 proline-rich family protein (30 min): 1.70 | Fold-change AT1G71030 Encodes a putative myb family transcription factor (30 min): 0.92 | Fold-change AT1G72060 expressed protein (30 min): 2.19 | Fold-change AT1G72180 leucine-rich repeat transmembrane protein kinase (30 min): 0.54 | Fold-change AT1G72800 nuM1-related, contains (30 min): 1.15 | Fold-change AT1G75270 dehydroascorbate reductase (30 min): 1.16 | Fold-change AT1G75500 nodulin MtN21 family protein (30 min): 0.67 | Fold-change AT1G76240 expressed protein, (30 min): 0.40 | Fold-change AT1G76410 zinc finger (C3HC4-type RING finger) (30 min): 0.54 | Fold-change AT1G79110 expressed protein (30 min): 0.66 | Fold-change AT1G79630 protein phosphatase 2C family protein (30 min): 0.62 | Fold-change AT1G80440 kelch repeat-containing F-box family protein (30 min): 1.36 | Fold-change AT2G01300 expressed protein (30 min): 0.73 | Fold-change AT2G01990 expressed protein, (30 min): 1.89 | Fold-change AT2G04240 zinc finger (C3HC4-type RING finger) family protein (30 min): 0.77 | Fold-change AT2G05540 glycine-rich protein (30 min): 0.71 | Fold-change AT2G12290; AT4G19700 [AT2G12290, expressed protein]; [AT4G19700, expressed protein] (30 min): 0.38 | Fold-change AT2G18010 auxin-responsive family protein (SAUR10) (30 min): 1.35 | Fold-change AT2G19800 expressed protein (30 min): 2.29 | Fold-change AT2G22860 phytosulfokines 2 (PSK2) (30 min): 0.68 | Fold-change AT2G23180 cytochrome P450, putative (30 min): 0.67 | Fold-change AT2G23320 WRKY family transcription factor (30 min): 1.41 | Fold-change AT2G26530 expressed protein (30 min): 1.24 | Fold-change AT2G26710 cytochrome p450 family (BAS1) (30 min): 0.72 | Fold-change AT2G28510 Dof-type zinc finger domain-containing protein (30 min): 1.28 | Fold-change AT2G29340 short-chain dehydrogenase/reductase (SDR) family protein (30 min): 1.55 | Fold-change AT2G29990 pyridine nucleotide-disulphide oxidoreductase family protein (30 min): 1.43 | Fold-change AT2G30070 potassium transporter (KUP1) (30 min): 0.61 | Fold-change AT2G31230 encodes a member of the ERF (ethylene response factor) (30 min): 2.13 | Fold-change AT2G34650 protein kinase PINOID (PID) (30 min): 1.04 | Fold-change AT2G36220 expressed protein (30 min): 1.10 | Fold-change AT2G37590 Dof-type zinc finger domain-containing protein (30 min): 1.52 | Fold-change AT2G38470 WRKY family transcription factor (30 min): 2.02 | Fold-change AT2G39710 aspartyl protease family protein (30 min): 2.42 | Fold-change AT2G40340; AT2G40350 [AT2G40340, encodes a member of the DREB subfamily A-2 of ERF/AP2 (30 min): 1.40 | Fold-change AT2G41250 haloacid dehalogenase-like hydrolase family protein (30 min): 0.82 | Fold-change AT2G41640 expressed protein (30 min): 1.96 | Fold-change AT2G42280 basic helix-loop-helix (bHLH) family protein (30 min): 0.67 | Fold-change AT2G43060 expressed protein, similar to cDNA bHLH transcription factor (30 min): 0.31 | Fold-change AT2G43280 far-red impaired responsive family protein (30 min): 0.78 | Fold-change AT2G43290 calmodulin-like protein (MSS3) (30 min): 0.81 | Fold-change AT2G44130 kelch repeat-containing F-box family protein (30 min): 1.13 | Fold-change AT2G44500 expressed protein (30 min): 1.26 | Fold-change AT2G45210 auxin-responsive protein-related (30 min): 0.34 | Fold-change AT2G45680 TCP family transcription factor (30 min): 0.50 | Fold-change AT2G46225 Encodes a subunit of the WAVE complex (30 min): 1.15 | Fold-change AT2G47440 DNAJ heat shock N-terminal domain-containing protein (30 min): 1.07 | Fold-change AT3G04210 disease resistance protein (TIR-NBS class), putative, (30 min): 2.18 | Fold-change AT3G09920 phosphatidylinositol-4-phosphate 5-kinase family protein (30 min): 1.56 | Fold-change AT3G12920 expressed protein (30 min): 0.45 | Fold-change AT3G13040 myb family transcription factor (30 min): 0.93 | Fold-change AT3G13510 expressed protein (30 min): 0.85 | Fold-change AT3G13980 expressed protein (30 min): 0.25 | Fold-change AT3G14370 protein kinase family protein (30 min): 1.10 | Fold-change AT3G14560 expressed protein (30 min): 0.59 | Fold-change AT3G16570 rapid alkalinization factor (RALF) family protein (30 min): 0.54 | Fold-change AT3G17860 expressed protein (30 min): 0.78 | Fold-change AT3G18830 polyol/cyclitol/monosaccharide-H+-symporte (30 min): 1.64 | Fold-change AT3G19380 U-box domain-containing protein (30 min): 0.67 | Fold-change AT3G23030 auxin-responsive protein/indoleacetic acid-induced protein 2 (IAA2) (30 min): 0.55 | Fold-change AT3G23550 MATE efflux family protein (30 min): 0.67 | Fold-change AT3G25710 basic helix-loop-helix (bHLH) family protein (30 min): 0.48 | Fold-change AT3G25900 homocysteine S-methyltransferase 1 (HMT-1) (30 min): 1.32 | Fold-change AT3G26910 hydroxyproline-rich glycoprotein family protein (30 min): 2.49 | Fold-change AT3G30180 cytochrome p450 enzyme (30 min): 0.09 | Fold-change AT3G46880 expressed protein, (30 min): 1.50 | Fold-change AT3G47800 aldose 1-epimerase family protein (30 min): 0.91 | Fold-change AT3G48970 copper-binding family protein (30 min): 0.40 | Fold-change AT3G49810 U-box domain-containing protein (30 min): 1.29 | Fold-change AT3G50650 scarecrow-like transcription factor 7 (SCL7) (30 min): 1.51 | Fold-change AT3G50660 steroid 22-alpha-hydroxylase (CYP90B1) (DWF4) (30 min): 0.47 | Fold-change AT3G50750 brassinosteroid signalling positive regulator-related (BEH1) (30 min): 0.63 | Fold-change AT3G52490 heat shock protein-related (30 min): 1.17 | Fold-change AT3G53810 lectin protein kinase (30 min): 2.28 | Fold-change AT3G54950 patatin-related, (30 min): 0.58 | Fold-change AT3G55120 chalcone-flavanone isomerase (30 min): 0.94 | Fold-change AT3G55150 exocyst subunit EXO70 family protein (30 min): 3.44 | Fold-change AT3G55840 expressed protein (30 min): 1.05 | Fold-change AT3G61460 zinc finger (C3HC4-type RING finger) family protein (BRH1) (30 min): 0.43 | Fold-change AT3G63300 expressed protein (30 min): 1.26 | Fold-change AT4G01680 myb family transcription factor (MYB55) (30 min): 0.21 | Fold-change AT4G02410 lectin protein kinase family protein (30 min): 2.60 | Fold-change AT4G08040 1-aminocyclopropane-1-carboxylate synthase, putative (30 min): 0.08 | Fold-change AT4G09460 myb family transcription factor (30 min): 1.50 | Fold-change AT4G12390 invertase/pectin methylesterase inhibitor family protein (30 min): 0.75 | Fold-change AT4G12410 auxin-responsive family protein (30 min): 0.66 | Fold-change AT4G14130 xyloglucan:xyloglucosyl transferase (30 min): 0.37 | Fold-change AT4G15975 zinc finger (C3HC4-type RING finger) family protein (30 min): 2.33 | Fold-change AT4G16146 expressed protein (30 min): 0.91
